BindingDB's records for doi:10.1021/jm00020a029 (Merck Research Laboratories, 1995)
Where a SMILES comes first, the peptide text is derived from it. [ ]: non-standard residue; d: D form. ξ: configuration not given here. ξTyr(3,5-I2) = NC(Cc1cc(I)c(O)c(I)c1)C(=O)O; Tyr(3-I) = N[C@@H](Cc1ccc(O)c(I)c1)C(=O)O; Phe(4-F) = N[C@@H](Cc1ccc(F)cc1)C(=O)O; hArg = N=C(N)NCCCC[C@H](N)C(=O)O; Cha = N[C@@H](CC1CCCCC1)C(=O)O; NMeA = CN[C@@H](C)C(=O)O

Experiments:
[1] = Evaluated for the activity of Radio-ligand Peptides upon the activation of human thrombin receptor measured by platelet aggregation
[2] = Evaluated for the activation of human thrombin receptor measured by platelet aggregation

| EC50 [1] [µM] | EC50 [2] [µM] | SMILES |
| --- | --- | --- |
| 0.15 | – | C[C@H](N)C(=O)N[C@@H](Cc1ccc(F)cc1)C(=O)N[C@@H](CCCNC(=N)N)C(=O)N[C@@H](CC1CCCCC1)C(=O)N[C@@H](CCCCNC(=N)N)C(=O)NC(Cc1cc(I)c(O)c(I)c1)C(N)=O (stereo partly drawn) [(S)-2-((S)-2-{(S)-2-[(S)-2-((S)-2-Amino-propionylamino)-3-(4-fluoro-phenyl)-propionylamino]-5-guanidino-pentanoylamino}-3-cyclohexyl-propionylamino)-6-guanidino-hexanoic acid [1-carbamoyl-2-(4-hydroxy-3,5-diiodo-phenyl)-ethyl]-amide] (H-A[Phe(4-F)]R[Cha][hArg][ξTyr(3,5-I2)]-NH2) |
| 0.03 | – | C[C@H](N)C(=O)N[C@@H](Cc1ccc(F)cc1)C(=O)N[C@@H](CCCN=C(N)N)C(=O)N[C@@H](CC1CCCCC1)C(=O)N[C@@H](CCCCN=C(N)N)C(=O)N[C@@H](Cc1ccc(O)c(I)c1)C(N)=O [(S)-2-((S)-2-{(S)-2-[(S)-2-((S)-2-Amino-propionylamino)-3-(4-fluoro-phenyl)-propionylamino]-5-guanidino-pentanoylamino}-3-cyclohexyl-propionylamino)-6-guanidino-hexanoic acid [1-carbamoyl-2-(4-hydroxy-3-iodo-phenyl)-ethyl]-amide] (H-A[Phe(4-F)]R[Cha][hArg][Tyr(3-I)]-NH2) |
| – | 31 | CC(C)C[C@H](NC(=O)[C@H](CC(C)C)NC(=O)[C@H](Cc1ccccc1)NC(=O)[C@@H](N)Cc1cnc[nH]1)C(=O)N[C@@H](CCCNC(=N)N)C(N)=O [(S)-2-{(S)-2-[(S)-2-Amino-3-(3H-imidazol-4-yl)-propionylamino]-3-phenyl-propionylamino}-4-methyl-pentanoic acid [(S)-1-((S)-1-carbamoyl-4-guanidino-butylcarbamoyl)-3-methyl-butyl]-amide] (H-HFLLR-NH2) |
| – | 350 | CC(C)C[C@H](NC(=O)[C@H](CC(C)C)N(C)C(=O)[C@H](Cc1ccccc1)NC(=O)[C@@H](N)CO)C(=O)N[C@@H](CCCNC(=N)N)C(N)=O [(S)-2-{[(S)-2-((S)-2-Amino-3-hydroxy-propionylamino)-3-phenyl-propionyl]-methyl-amino}-4-methyl-pentanoic acid [(S)-1-((S)-1-carbamoyl-4-guanidino-butylcarbamoyl)-3-methyl-butyl]-amide] |
| – | > 800 | CC(C)C[C@H](NC(=O)[C@H](CC(C)C)NC(=O)[C@H](Cc1ccccc1)NC(=O)[C@@H](N)CC(=O)O)C(=O)N[C@@H](CCCNC(=N)N)C(N)=O [(S)-3-Amino-N-((S)-1-{(S)-1-[(S)-1-((S)-1-carbamoyl-4-guanidino-butylcarbamoyl)-3-methyl-butylcarbamoyl]-3-methyl-butylcarbamoyl}-2-phenyl-ethyl)-succinamic acid] (H-DFLLR-NH2) |
| – | 600 | CN[C@@H](C)C(=O)N[C@@H](Cc1ccccc1)C(=O)N[C@@H](CC(C)C)C(=O)N[C@@H](CC(C)C)C(=O)N[C@@H](CCCNC(=N)N)C(N)=O [(S)-4-Methyl-2-[(S)-2-((S)-2-methylamino-propionylamino)-3-phenyl-propionylamino]-pentanoic acid [(S)-1-((S)-1-carbamoyl-4-guanidino-butylcarbamoyl)-3-methyl-butyl]-amide] (H-[NMeA]FLLR-NH2) |
| – | 3.3 | CC(C)C[C@H](NC(=O)[C@H](CC(C)C)NC(=O)[C@H](Cc1ccccc1)NC(=O)[C@@H](N)CO)C(=O)N[C@@H](CCCNC(=N)N)C(=O)N[C@@H](CC(N)=O)C(=O)N1CCC[C@H]1C(=O)N[C@@H](CC(N)=O)C(=O)N[C@@H](CC(=O)O)C(N)=O [SFLLRDPQD-NH2] (H-SFLLRNPND-NH2) |

| SMILES | EC50 [1] [µM] | EC50 [2] [µM] |
| --- | --- | --- |
| CC(C)C[C@H](NC(=O)[C@H](CC(C)C)NC(=O)[C@H](Cc1ccccc1)NC(=O)[C@@H](N)Cc1ccc(O)cc1)C(=O)N[C@@H](CCCNC(=N)N)C(N)=O [(S)-2-{(S)-2-[(S)-2-Amino-3-(4-hydroxy-phenyl)-propionylamino]-3-phenyl-propionylamino}-4-methyl-pentanoic acid [(S)-1-((S)-1-carbamoyl-4-guanidino-butylcarbamoyl)-3-methyl-butyl]-amide] (H-YFLLR-NH2) | – | 400 |
